Data: US20010023252A1, “Novel compound” (SmithKline Beecham Plc, priority 1998, published 2001)

Assay: Aqueous solubility of the salt (stated in words)
Format: physicochemical
Conditions: water, compared with the hydrochloride salt

## paroxetine methanesulfonate
  aqueous solubility (in words): highly water soluble
Listed as methanesulfonate salt of paroxetine
  aqueous solubility (in words): significantly more soluble than the hydrochloride salt
